{"source": "patent US11453703B2", "about": "“Heterotandem bicyclic peptide complexes” (BicycleTX Limited, priority 2018, dated 2022)", "target": "CD137 (Homo sapiens, UniProt Q07011)", "sequence (Q07011 24-255)": "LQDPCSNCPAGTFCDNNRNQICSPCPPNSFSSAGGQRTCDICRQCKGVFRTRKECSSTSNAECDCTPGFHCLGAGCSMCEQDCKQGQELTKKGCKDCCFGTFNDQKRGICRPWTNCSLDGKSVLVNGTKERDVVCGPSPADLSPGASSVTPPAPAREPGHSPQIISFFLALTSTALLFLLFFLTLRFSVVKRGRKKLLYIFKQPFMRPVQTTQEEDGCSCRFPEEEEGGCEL", "test": "CD137 reporter assay, co-culture with Nectin-4 tumour cells;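 further: jurkat reporter cells co-cultured with tumour cells and test article for 6 h, luminescence signal relative to Jurkat plus tumour cells lacking test article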", "format": "cell-based", "design": "host or cells: Jurkat reporter cells", "conditions": "for Fold Induction over Background: tumour target Nectin4, co-culture with H1376, 6 h", "note": "pEC50: −log10 of the molar value. Starred links: 1 amine or outer side, 2 acyl side, 3 side chain; linkers in the order of their positions; H or OH if unused. Positions of bridges follow the written chain, without caps; N, C: chain ends. Non-standard residues stand in square brackets, D forms with d. Chains are numbered I, II in the order given. X1 = O=C(CCc1cn(CCOCCOCCOCCOCCOCCOCCOCCOCCOCCOCCOCCOCCC(=O)[*:2])nn1)NCCC(=O)[*:1]; TATA = O=C(CC[*:1])N1CN(C(=O)CC[*:2])CN(C(=O)CC[*:3])C1; 1Nal = N[C@@H](Cc1cccc2ccccc12)C(=O)O; Hyp = O=C(O)[C@@H]1C[C@@H](O)CN1; hArg = N=C(N)NCCCC[C@H](N)C(=O)O; tBuAla = CC(C)(C)C[C@H](N)C(=O)O; Nle = CCCC[C@H](N)C(=O)O; Sar = CNCC(=O)O", "data": [{"molecule": "CCCC[C@@H]1NC(=O)[C@H](Cc2ccc(O)cc2)NC(=O)[C@@H]2CCCN2C(=O)[C@H](CC(=O)O)NC(=O)[C@H](C)NC(=O)[C@H](Cc2ccccc2)NC(=O)[C@@H]2CSCCC(=O)N3CN(CN(C3)C(=O)CCSC[C@@H](C(=O)N[C@@H](CNC(=O)CCc3cn(CC(=O)N[C@H]4CSCCC(=O)N5CN6CN(C5)C(=O)CCSC[C@H](NC(=O)[C@@H](CC(=O)O)NC(=O)[C@H](Cc5cccc7ccccc57)NC(=O)[C@@H]5CCCN5C4=O)C(=O)N[C@@H](CCSC)C(=O)N[C@@H](CCCCNC(=N)N)C(=O)N[C@@H](CC(=O)O)C(=O)N[C@@H](Cc4c[nH]c5ccccc45)C(=O)N[C@@H](CO)C(=O)N[C@@H]([C@@H](C)O)C(=O)N4CCC[C@H]4C(=O)N4C[C@H](O)C[C@H]4C(=O)N[C@@H](Cc4c[nH]c5ccccc45)C(=O)N[C@H](C(N)=O)CSCCC6=O)nn3)C(N)=O)NC1=O)C(=O)CCSC[C@H](NC(C)=O)C(=O)N[C@@H](CC(C)(C)C)C(=O)N1CCC[C@H]1C(=O)N[C@@H](CCC(=O)O)C(=O)N[C@H](C)C(=O)N1CCC[C@H]1C(=O)N[C@@H](Cc1ccc(O)cc1)C(=O)N2", "note": "[BCY11375]", "values": [{"measurement": "pEC50", "value": 9.64}, {"measurement": "Fold Induction over Background", "value": 72, "unit": "fold"}]}, {"molecule": "CCCC[C@@H]1NC(=O)[C@H](Cc2ccc(O)cc2)NC(=O)[C@@H]2CCCN2C(=O)[C@H](CC(=O)O)NC(=O)[C@H](C)NC(=O)[C@H](Cc2ccccc2)NC(=O)[C@@H]2CSCCC(=O)N3CN(CN(C3)C(=O)CCSC[C@@H](C(=O)N[C@@H](CNC(=O)CCc3cn(CCOCCOCCOCCOCCOCCC(=O)NCCC(=O)N(C)CC(=O)N(C)CC(=O)N(C)CC(=O)N(C)CC(=O)N(C)CC(=O)N(C)CC(=O)N(C)CC(=O)N(C)CC(=O)N(C)CC(=O)N(C)CC(=O)NCCCC[C@H]4NC(=O)[C@H](Cc5cccc6ccccc56)NC(=O)[C@@H]5CCCN5C(=O)[C@@H](NC(C)=O)CSCCC(=O)N5CN6CN(C5)C(=O)CCSC[C@H](NC4=O)C(=O)N[C@@H](CCSC)C(=O)N[C@@H](CCCCNC(=N)N)C(=O)N[C@@H](CC(=O)O)C(=O)N[C@@H](Cc4c[nH]c5ccccc45)C(=O)N[C@@H](CO)C(=O)N[C@@H]([C@@H](C)O)C(=O)N4CCC[C@H]4C(=O)N4C[C@H](O)C[C@H]4C(=O)N[C@@H](Cc4c[nH]c5ccccc45)C(=O)N[C@H](C(N)=O)CSCCC6=O)nn3)C(N)=O)NC1=O)C(=O)CCSC[C@H](NC(C)=O)C(=O)N[C@@H](CC(C)(C)C)C(=O)N1CCC[C@H]1C(=O)N[C@@H](CCC(=O)O)C(=O)N[C@H](C)C(=O)N1CCC[C@H]1C(=O)N[C@@H](Cc1ccc(O)cc1)C(=O)N2", "note": "[BCY11020]", "values": [{"measurement": "Fold Induction over Background", "value": 47, "unit": "fold"}]}, {"molecule": "I: [Sar][Sar][Sar][Sar][Sar][Sar][Sar][Sar][Sar][Sar]CP[1Nal][dD]CM[hArg]DWSTP[Hyp]WC-NH2 / II: Ac-C[tBuAla]PE[dK]PYCFADPY[Nle]CA-NH2 (linker I:11-I:15-I:25, II:1-II:8-II:15 via TATA; linker I:N-II:5 via X1) [BCY10569]", "values": [{"measurement": "pEC50", "value": 8.92}, {"measurement": "Fold Induction over Background", "value": 52, "unit": "fold"}]}, {"molecule": "CCCC[C@@H]1NC(=O)[C@H](Cc2ccc(O)cc2)NC(=O)[C@@H]2CCCN2C(=O)[C@H](CC(=O)O)NC(=O)[C@H](C)NC(=O)[C@H](Cc2ccccc2)NC(=O)[C@@H]2CSCCC(=O)N3CN(CN(C3)C(=O)CCSC[C@@H](C(=O)N[C@@H](CNC(=O)CCc3cn(CCOCCOCCOCCOCCOCCOCCOCCOCCOCCOCCOCCOCCC(=O)NCCC(=O)N(C)CC(=O)N(C)CC(=O)N(C)CC(=O)N(C)CC(=O)N(C)CC(=O)N(C)CC(=O)N(C)CC(=O)N(C)CC(=O)N(C)CC(=O)N(C)CC(=O)NCCCC[C@H]4NC(=O)[C@H](Cc5cccc6ccccc56)NC(=O)[C@@H]5CCCN5C(=O)[C@@H](NC(C)=O)CSCCC(=O)N5CN6CN(C5)C(=O)CCSC[C@H](NC4=O)C(=O)N[C@@H](CCSC)C(=O)N[C@@H](CCCCNC(=N)N)C(=O)N[C@@H](CC(=O)O)C(=O)N[C@@H](Cc4c[nH]c5ccccc45)C(=O)N[C@@H](CO)C(=O)N[C@@H]([C@@H](C)O)C(=O)N4CCC[C@H]4C(=O)N4C[C@H](O)C[C@H]4C(=O)N[C@@H](Cc4c[nH]c5ccccc45)C(=O)N[C@H](C(N)=O)CSCCC6=O)nn3)C(N)=O)NC1=O)C(=O)CCSC[C@H](NC(C)=O)C(=O)N[C@@H](CC(C)(C)C)C(=O)N1CCC[C@H]1C(=O)N[C@@H](CCC(=O)O)C(=O)N[C@H](C)C(=O)N1CCC[C@H]1C(=O)N[C@@H](Cc1ccc(O)cc1)C(=O)N2", "note": "[BCY10917]", "values": [{"measurement": "Fold Induction over Background", "value": 54, "unit": "fold"}]}, {"molecule": "CCCC[C@@H]1NC(=O)[C@H](Cc2ccc(O)cc2)NC(=O)[C@@H]2CCCN2C(=O)[C@H](CC(=O)O)NC(=O)[C@H](C)NC(=O)[C@H](Cc2ccccc2)NC(=O)[C@@H]2CSCCC(=O)N3CN(CN(C3)C(=O)CCSC[C@@H](C(=O)N[C@@H](CNC(=O)CCOCCOCCOCCOCCOCCOCCOCCOCCOCCOCCOCCOCCOCCOCCOCCOCCOCCOCCOCCOCCOCCOCCOCCOCCOCCC(=O)N[C@H]3CSCCC(=O)N4CN5CN(C4)C(=O)CCSC[C@H](NC(=O)[C@@H](CC(=O)O)NC(=O)[C@H](Cc4cccc6ccccc46)NC(=O)[C@@H]4CCCN4C3=O)C(=O)N[C@@H](CCSC)C(=O)N[C@@H](CCCCNC(=N)N)C(=O)N[C@@H](CC(=O)O)C(=O)N[C@@H](Cc3c[nH]c4ccccc34)C(=O)N[C@@H](CO)C(=O)N[C@@H]([C@@H](C)O)C(=O)N3CCC[C@H]3C(=O)N3C[C@H](O)C[C@H]3C(=O)N[C@@H](Cc3c[nH]c4ccccc34)C(=O)N[C@H](C(N)=O)CSCCC5=O)C(N)=O)NC1=O)C(=O)CCSC[C@H](NC(=O)[C@H](C)NC(C)=O)C(=O)N[C@@H]([C@@H](C)CC)C(=O)N[C@@H](CCC(=O)O)C(=O)N[C@@H](CCC(=O)O)C(=O)NCC(=O)N[C@@H](CCC(N)=O)C(=O)N[C@@H](Cc1ccc(O)cc1)C(=O)N2", "note": "[BCY9759]", "values": [{"measurement": "Fold Induction over Background", "value": 15, "unit": "fold"}]}, {"molecule": "CCCC[C@@H]1NC(=O)[C@H](Cc2ccc(O)cc2)NC(=O)[C@@H]2CCCN2C(=O)[C@H](CC(=O)O)NC(=O)[C@H](C)NC(=O)[C@H](Cc2ccccc2)NC(=O)[C@@H]2CSCCC(=O)N3CN(CN(C3)C(=O)CCSC[C@@H](C(=O)N[C@@H](CNC(=O)CCc3cn(CCOCCOCCOCCOCCOCCC(=O)N[C@H]4CSCCC(=O)N5CN6CN(C5)C(=O)CCSC[C@H](NC(=O)[C@@H](CC(=O)O)NC(=O)[C@H](Cc5cccc7ccccc57)NC(=O)[C@@H]5CCCN5C4=O)C(=O)N[C@@H](CCSC)C(=O)N[C@@H](CCCCNC(=N)N)C(=O)N[C@@H](CC(=O)O)C(=O)N[C@@H](Cc4c[nH]c5ccccc45)C(=O)N[C@@H](CO)C(=O)N[C@@H]([C@@H](C)O)C(=O)N4CCC[C@H]4C(=O)N4C[C@H](O)C[C@H]4C(=O)N[C@@H](Cc4c[nH]c5ccccc45)C(=O)N[C@H](C(N)=O)CSCCC6=O)nn3)C(N)=O)NC1=O)C(=O)CCSC[C@H](NC(C)=O)C(=O)N[C@@H](CC(C)(C)C)C(=O)N1CCC[C@H]1C(=O)N[C@@H](CCC(=O)O)C(=O)N[C@H](C)C(=O)N1CCC[C@H]1C(=O)N[C@@H](Cc1ccc(O)cc1)C(=O)N2", "note": "[BCY10573]", "values": [{"measurement": "pEC50", "value": 9.05}, {"measurement": "Fold Induction over Background", "value": 55, "unit": "fold"}]}]}
